Results taken from patent US20010034342A1, “Substituted urea and isothiourea derivatives as no synthase inhibitors” (priority 1993, published 2001).
Structures can show the parent of a compound that is named as a salt. Where two headings read alike, the source gives them in different places.

Experiments:
Type in all cases: biochemical
Human brain NOS = biological target: T1, Human brain NOS (Homo sapiens, UniProt P29475); assay: Human brain NOS enzyme activity assay; details: for Ki: isolated enzyme from human brain
T1 construct: Purification of NOS from human brain; from tissue; host or cells: frozen human brain
T1 sequence (P29475 whole entry): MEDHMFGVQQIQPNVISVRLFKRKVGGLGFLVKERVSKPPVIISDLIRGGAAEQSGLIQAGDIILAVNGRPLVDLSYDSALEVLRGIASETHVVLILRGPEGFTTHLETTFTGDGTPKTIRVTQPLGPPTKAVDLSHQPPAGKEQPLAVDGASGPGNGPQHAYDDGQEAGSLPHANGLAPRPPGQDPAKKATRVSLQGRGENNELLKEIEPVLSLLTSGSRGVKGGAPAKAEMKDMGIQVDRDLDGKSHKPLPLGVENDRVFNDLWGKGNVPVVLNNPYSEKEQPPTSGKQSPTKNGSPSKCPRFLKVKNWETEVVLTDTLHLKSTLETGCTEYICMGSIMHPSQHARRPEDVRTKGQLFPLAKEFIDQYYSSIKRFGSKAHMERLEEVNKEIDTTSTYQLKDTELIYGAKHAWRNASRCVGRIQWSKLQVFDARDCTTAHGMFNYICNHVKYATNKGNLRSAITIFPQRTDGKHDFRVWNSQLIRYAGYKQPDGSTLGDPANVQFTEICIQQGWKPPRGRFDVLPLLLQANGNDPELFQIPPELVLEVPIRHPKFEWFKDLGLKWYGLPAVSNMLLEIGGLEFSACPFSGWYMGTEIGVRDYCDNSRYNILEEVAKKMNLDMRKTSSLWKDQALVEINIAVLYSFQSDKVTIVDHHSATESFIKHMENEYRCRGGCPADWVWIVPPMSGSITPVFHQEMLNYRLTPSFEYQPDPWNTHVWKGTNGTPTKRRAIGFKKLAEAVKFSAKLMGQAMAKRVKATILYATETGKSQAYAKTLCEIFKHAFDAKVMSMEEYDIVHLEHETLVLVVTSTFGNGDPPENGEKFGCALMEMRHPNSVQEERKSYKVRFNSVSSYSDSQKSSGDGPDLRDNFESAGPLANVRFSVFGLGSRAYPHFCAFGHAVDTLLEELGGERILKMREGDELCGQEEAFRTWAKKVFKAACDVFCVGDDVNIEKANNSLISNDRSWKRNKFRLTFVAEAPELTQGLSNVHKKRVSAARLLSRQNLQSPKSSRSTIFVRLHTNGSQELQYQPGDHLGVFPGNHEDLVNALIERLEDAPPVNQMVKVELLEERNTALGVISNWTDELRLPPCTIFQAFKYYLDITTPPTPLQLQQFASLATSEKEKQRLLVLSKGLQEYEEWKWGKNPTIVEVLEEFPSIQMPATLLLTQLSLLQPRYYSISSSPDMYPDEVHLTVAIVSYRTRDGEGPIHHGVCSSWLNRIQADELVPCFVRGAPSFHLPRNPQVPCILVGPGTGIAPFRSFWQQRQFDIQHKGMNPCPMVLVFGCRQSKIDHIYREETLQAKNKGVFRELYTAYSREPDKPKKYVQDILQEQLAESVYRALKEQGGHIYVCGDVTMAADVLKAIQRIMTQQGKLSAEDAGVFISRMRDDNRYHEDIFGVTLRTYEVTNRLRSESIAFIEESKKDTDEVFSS
Experimental: The mixture was centrifuged at 13,000 g for 1 hour and the supernatant was removed (about 2050 ml). […] The precipitate was pelleted at 13,000 g for 30 minutes and the pellet was resuspended in −400 mls of buffer A with 4 μM tetrahydrobiopterin, 1 μm FAD (Sigma), 1 μM FMN (Sigma). The solution was centrifuged at 41,000 g for 60 minutes. The supernatant was removed, frozen by pouring into liquid nitrogen, and stored overnight at −70° C. The mixture was thawed and passed through a 2′,5′ ADP-agarose column (0.4 g swelled in buffer A) at 4 ml/min. The column was washed with 100 ml buffer A, 200 ml buffer A with 500 mM NaCl, 100 ml Buffer A, then 30 ml buffer A with 5 mM NADPH. […] To the enzyme was added tetrahydrobiopterin to 10 μM, FAD and FMN to 1 μM, and tween to 0.1%. This solution was concentrated by centriprep-30 to a volume of approximately 500 μl. Human NOS was prepared completely analogously except the calmodulin-agarose column was not used.

human placental NOS = biological target: T2, human placental NOS (Homo sapiens, UniProt P29474); assay: Assay for human placental NOS (citrulline formation); details: for inhibition at 25 µM: @ 25 μM inhibitor, read-out: Human Placental, percent (inhibition) @ 25 μM
T2 construct: Purification of NOS from human placenta; from tissue; host or cells: fresh human placenta
T2 sequence (P29474 2-1203): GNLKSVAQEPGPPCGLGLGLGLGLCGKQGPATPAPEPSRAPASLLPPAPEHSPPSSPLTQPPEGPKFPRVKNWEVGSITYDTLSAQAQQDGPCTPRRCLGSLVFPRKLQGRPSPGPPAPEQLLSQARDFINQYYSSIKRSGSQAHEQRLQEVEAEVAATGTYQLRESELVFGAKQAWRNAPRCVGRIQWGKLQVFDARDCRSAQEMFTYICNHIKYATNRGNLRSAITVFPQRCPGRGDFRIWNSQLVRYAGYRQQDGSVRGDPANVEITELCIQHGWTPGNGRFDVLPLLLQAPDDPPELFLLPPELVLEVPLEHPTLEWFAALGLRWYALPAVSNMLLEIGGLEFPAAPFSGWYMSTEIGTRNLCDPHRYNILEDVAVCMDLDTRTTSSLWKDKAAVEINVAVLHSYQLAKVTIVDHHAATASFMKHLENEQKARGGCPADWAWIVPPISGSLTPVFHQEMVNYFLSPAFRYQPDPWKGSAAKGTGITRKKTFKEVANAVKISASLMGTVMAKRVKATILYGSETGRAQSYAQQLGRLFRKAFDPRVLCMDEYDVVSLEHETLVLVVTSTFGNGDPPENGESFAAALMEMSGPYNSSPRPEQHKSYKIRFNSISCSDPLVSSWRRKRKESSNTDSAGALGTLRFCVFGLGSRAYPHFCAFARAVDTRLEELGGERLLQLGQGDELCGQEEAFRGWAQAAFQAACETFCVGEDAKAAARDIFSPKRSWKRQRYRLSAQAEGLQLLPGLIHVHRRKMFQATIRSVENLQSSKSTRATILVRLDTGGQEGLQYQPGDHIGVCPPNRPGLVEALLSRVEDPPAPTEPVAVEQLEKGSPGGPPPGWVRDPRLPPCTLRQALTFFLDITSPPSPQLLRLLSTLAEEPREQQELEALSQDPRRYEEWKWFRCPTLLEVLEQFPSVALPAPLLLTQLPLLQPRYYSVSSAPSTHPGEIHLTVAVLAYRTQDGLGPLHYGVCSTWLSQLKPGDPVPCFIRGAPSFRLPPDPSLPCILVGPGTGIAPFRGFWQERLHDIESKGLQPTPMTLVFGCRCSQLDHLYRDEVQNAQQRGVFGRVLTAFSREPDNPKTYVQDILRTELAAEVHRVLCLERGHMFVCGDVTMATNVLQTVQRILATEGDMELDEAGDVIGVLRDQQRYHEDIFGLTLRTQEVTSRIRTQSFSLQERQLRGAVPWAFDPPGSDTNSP
Experimental: (§1) NOS was assayed for the formation of citrulline following the procedure of Schmidt et al (PNAS 88 365-369, 1991) with these modifications: 20 mM Hepes, pH 7.4, 10 μg/ml calmodulin, 2.5 mM CaCl2 2.5 mM DTT, 125 μM NADPH 10 μM H4 Biopterin, 0.5 mg/ml BSA, and 1 μM L-[14C] arginine (New England Nuclear). Linearity of NOS-catalyzed rate was confirmed prior to kinetic studies that used single tine point determination of rate.

inducible human NOS = biological target: T3, inducible human NOS (Homo sapiens, UniProt P35228); assay: Assay for inducible human NOS (citrulline formation), enzyme from cytokine-induced DLD-1 cells; details: for inhibition at 25 µM: @ 25 μM inhibitor, read-out: Human Inducible, percent (inhibition) @ 25 μM
T3 construct: Purification of NOS cytokine-induced human colorectal adenocarcinoma DLD-1 cells; endogenous in cells; host or cells: DLD-1 (ATCC No. CCL 221), induced with IFN-gamma, IL-6, TNF and IL-1beta
T3 sequence (P35228 whole entry): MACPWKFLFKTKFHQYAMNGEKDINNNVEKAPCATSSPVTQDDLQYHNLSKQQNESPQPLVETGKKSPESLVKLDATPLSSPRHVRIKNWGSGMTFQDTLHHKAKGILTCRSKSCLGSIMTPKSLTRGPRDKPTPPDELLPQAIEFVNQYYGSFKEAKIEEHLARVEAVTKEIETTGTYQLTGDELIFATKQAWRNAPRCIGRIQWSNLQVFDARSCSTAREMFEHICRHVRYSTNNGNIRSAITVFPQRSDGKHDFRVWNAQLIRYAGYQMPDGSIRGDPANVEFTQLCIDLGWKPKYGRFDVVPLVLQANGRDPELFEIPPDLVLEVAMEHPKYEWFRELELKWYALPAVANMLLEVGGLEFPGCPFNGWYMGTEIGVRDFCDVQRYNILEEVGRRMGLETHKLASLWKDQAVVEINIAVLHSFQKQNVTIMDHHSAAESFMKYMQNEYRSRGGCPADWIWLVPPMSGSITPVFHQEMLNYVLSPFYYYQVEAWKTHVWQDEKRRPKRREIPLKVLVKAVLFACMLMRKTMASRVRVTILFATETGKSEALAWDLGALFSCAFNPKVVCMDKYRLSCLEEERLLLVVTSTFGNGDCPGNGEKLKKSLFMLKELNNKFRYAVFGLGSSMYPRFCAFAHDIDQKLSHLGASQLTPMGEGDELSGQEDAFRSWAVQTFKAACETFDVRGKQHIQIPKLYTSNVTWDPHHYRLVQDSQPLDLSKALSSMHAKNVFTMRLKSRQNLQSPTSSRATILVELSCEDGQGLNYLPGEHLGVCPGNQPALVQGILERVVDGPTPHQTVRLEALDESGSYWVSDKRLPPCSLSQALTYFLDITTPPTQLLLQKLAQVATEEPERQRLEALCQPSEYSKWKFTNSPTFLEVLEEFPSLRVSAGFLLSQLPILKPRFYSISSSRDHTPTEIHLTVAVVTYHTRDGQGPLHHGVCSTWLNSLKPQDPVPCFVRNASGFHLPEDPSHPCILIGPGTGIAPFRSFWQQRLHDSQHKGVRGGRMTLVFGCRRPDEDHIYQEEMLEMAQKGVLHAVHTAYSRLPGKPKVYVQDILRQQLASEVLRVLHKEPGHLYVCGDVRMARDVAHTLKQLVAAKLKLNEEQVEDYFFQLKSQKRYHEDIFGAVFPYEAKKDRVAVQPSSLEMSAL
Experimental: as §1
DLD-1 (ATCC No. CCL 221) were grown at 37° C., 5% CO2 in RPMI 1640 medium supplemented with L-glutamin, penicillin, streptomycin, and 10% heat-inactivated fetal bovine serum. Cells were grown to confluency and then the following cocktail of cytokines were added: 100 units/ml interferon-gamma, 200 units/ml interleukin-6, 10 ng/ml tumor necrosis factor, and 0.5 ng/mil interleukin-1β. At 10-24 hr post-induction, cells were harvested by scraping and washed with phosphate-buffered saline. Pelleted cells were stored at −70° C. Purification of the induced NOS was performed at 4° C. Crude extract was prepared by three cycles of freeze/thawing cells in TDGB (20 mM tris pH 7.5, 10% glycerol, 1 mM DTT, 2 μM tetrahydrobiopterin). Extract was applied directly onto a column of 2′,5′ ADP sepharse (Pharmacia). Resin was sequentially washed with TDGB, 0.5 M NaCl in TDGB, TDGB. NOS was eluted with 2 mM NADPH in TDGB. BSA was immediately added to give a final concentration of 1 mg/ml. NOS could be quick frozen and stored at −70° C. without loss in activity for at least 2 months.
Assay for inducible human NOS.
The formation of citrulline was assayed as described above except that 10 μM FAD was included and calmodulin and CaCl2 were excluded from the assay mix.

[1] = isolated enzyme from human placenta, read-out: Human Placental Ki/μM
[2] = isolated enzyme from DLD-1 cells, read-out: Human Inducible Ki/μM
[3] = from percent inhibition at three or more concentrations at a single time point, assuming competitive inhibition with respect to arginine, read-out: Human Placental Ki/μM (footnote b)
[4] = from percent inhibition at three or more concentrations at a single time point, assuming competitive inhibition with respect to arginine, read-out: Human Inducible Ki/μM (footnote b)

Molecule | Ki (Human brain NOS) [µM] | Ki (human placental NOS; [1]) [µM] | Ki (inducible human NOS; [2]) [µM] | further results
CCSC(=N)Nc1ccc(Oc2ccccc2)cc1 [Example 1, S-Ethyl-N-(4-phenoxyphenyl)isothiourea] | 0.19 ± 0.01 | 4 | 3.1 | –
CCSC(=N)Nc1cccc(OC)c1 [Example 1A, S-ethyl-N-(3-methoxyphenyl)isothiourea] | 0.56 ± 0.02 | 3.1 | 3.2 | –
CCSC(=N)Nc1ccc(OCc2ccccc2)cc1 [Example 1B, S-ethyl-N-[4-(benzyloxy)phenyl]isothiourea] | 0.21 ± 0.01 | 2.8 | 6.6 | –
CCOC(=O)c1ccc(NC(=N)SCC)cc1 [Example 1C, S-ethyl-N-[4-(ethoxycarbonyl)phenyl]isothiourea] | 1.6 | 12 | > 25 | –
CCSC(=N)Nc1ccc(C(=O)O)cc1 [Example 1D, S-ethyl-N-(4-carboxyphenyl)isothiourea] | – | – | – | inhibition at 25 µM (Human brain NOS; @ 25 μM inhibitor, read-out: Human Brain, percent (inhibition) @ 25 μM): 30%; inhibition at 25 µM (human placental NOS): 14%; Human Inducible, percent (inhibition), concentration not given (inducible human NOS): 0%
CCSC(=N)Nc1cccc(C(=O)O)c1 [Example 1E, S-ethyl-N-(3-carboxyphenyl)isothiourea] | – | 14 | 44 | –
CCSC(=N)Nc1ccccc1Br [Example 1F, S-ethyl-N-(2-bromophenyl)isothiourea] | 0.25 ± 0.02 | 2 | 4.7 | –
CCSC(=N)Nc1ccc(N(C)C)cc1 [Example 1G, S-ethyl-N-(4-dimethylaminophenyl)isothiourea] | 1.4 ± 0.01 | 9 | 29 | –
CCSC(=N)Nc1ccc(C2CCCCC2)cc1 [Example 1H, S-ethyl-N-(4-cyclohexylphenyl)isothiourea] | 1.5 ± 0.07 | 14 | 28 | –
CCSC(=N)Nc1ccc(O)cc1 [Example 1I, S-ethyl-N-(4-hydroxyphenyl)isothiourea] | 0.34 | 2.7 | 2.5 | –
CCSC(=N)Nc1ccc(OC)cc1 [Example 1J, S-ethyl-N-(4-methoxyphenyl)isothiourea] | 0.29 ± 0.04 | 2.7 | 4.9 | –
CCSC(=N)Nc1ccccn1 [Example 1K, S-ethyl-N-(2-pyridyl)isothiourea] | 4.8 | – | – | inhibition at 25 µM (human placental NOS): 48%; inhibition at 25 µM (inducible human NOS): 48%
CCSC(=N)Nc1ccc(C(F)(F)F)cc1 [Example 2, S-ethyl-N-[4-(trifluoromethyl)phenyl]isothiourea hydrochloride] | 0.32 ± 0.02 | 9.4 | – | inhibition at 25 µM (inducible human NOS): 36%
CCSC(=N)Nc1cccc(Cl)c1 [Example 2B, S-Ethyl-N-(3-chlorophenyl)isothiourea] | 0.45 | 1.8 | 2.4 | –
CCSC(=N)Nc1ccccc1C(C)C [Example 2C, S-Ethyl-N-(2-isopropylphenyl)isothiourea] | 1.13 ± 0.02 | 6.5 | 10 | –
CCSC(=N)Nc1ccc(C(C)C)cc1 [Example 2D, S-Ethyl-N-(4-isopropylphenyl)isothiourea] | 0.33 | 7.7 | – | –
CCSC(=N)Nc1cccc(C(F)(F)F)c1 [Example 2E, S-Ethyl-N-[3-(trifluoromethyl)phenyl]isothiourea] | 1.1 ± 0.01 | 28 | 3.2 | –
CCSC(=N)Nc1ccccc1C(F)(F)F [Example 2F, S-Ethyl-N-[2-(trifluoromethyl)phenyl]isothiourea] | 1.4 ± 0.01 | 1.8 | 22 | –
CCSC(=N)Nc1ccccc1Cl [Example 2G] | 0.17 | 1.8 | 2.9 | –

Molecule | Ki (Human brain NOS) [µM] | Ki (human placental NOS; [1]) [µM] | Ki (inducible human NOS; [2]) [µM] | further results
CCSC(=N)Nc1ccccc1OC [Example 2H, S-Ethyl-N-(2-methoxyphenyl)isothiourea] | 0.17 ± 0.02 | 1.6 | 1.4 | –
CCSC(=N)Nc1ccc(C)cc1 [Example 2I, S-Ethyl-N-(4-methylphenyl)isothiourea] | 0.18 ± 0.04 | 1 | 1.9 | –
CCSC(=N)Nc1cccnc1 [Example 2J, S-Ethyl-N-(3-pyridyl)isothiourea] | 1 | 6.9 | – | inhibition at 25 µM (inducible human NOS): 47%
CCSC(=N)Nc1ccc(Cl)c(C(F)(F)F)c1 [Example 2K, S-Ethyl-N-(4-chloro-3-(trifluoromethyl)phenyl)isothiourea] | 4.2 | 8.2 | 17 | –
CCSC(=N)Nc1cc(C(F)(F)F)ccc1Cl [Example 2L, S-Ethyl-N-(2-chloro-5-(trifluoromethyl)phenyl)isothiourea] | – | – | – | Human Brain, percent (inhibition), concentration not given (Human brain NOS; concentration not given): 40%; Human Placental, percent (inhibition), concentration not given (human placental NOS): 6%; Human Inducible, percent (inhibition), concentration not given (inducible human NOS): 20%
CCSC(=N)Nc1ccncc1 [Example 2M, S-Ethyl-N-(4-pyridyl)isothiourea] | 1 ± 0.2 | 6.9 | 23 | –
CCOC(=N)Nc1ccc(C(F)(F)F)cc1 [Example 3A, O-Ethyl-N-(4-(trifluoromethyl)phenyl)isourea] | 1.9 ± 0.1 | – | – | Human Placental, percent (inhibition), concentration not given (human placental NOS): 35%; Human Inducible, percent (inhibition), concentration not given (inducible human NOS): 12%
N[C@@H](CCCNC1=NCCS1)C(=O)O [Example 5, N^5-(2-thiazolin-2-yl)-L-ornithine] | – | 5.5 | 3.3 | –
CSC(=N)NCc1cccc(CNC(=N)SC)c1 [Example 6, N, N′-((methylthio)iminomethyl)-m-xylylenediamine] | 0.5 | 17 | 2.3 | –
CSC(=N)NCc1ccc(CNC(=N)SC)cc1 [Example 7, N,N-((methylthio)iminomethyl)-p-xylylenediamine] | 3.2 | 22 | 45 | –
CSC(=N)NCCC[C@H](N)C(=O)O [Example 8] | – | – | – | Kd (Human brain NOS; Kd from association and dissociation rate constants for the slow onset of inhibition, read-out: Human Brain Ki/μM (footnote c: value is a Kd)): 0.001 µM; Ki (human placental NOS; [3]): 0.07 µM; Ki (inducible human NOS; from steady state inhibited rate / control rate, assuming competitive inhibition with respect to arginine, read-out: Human Inducible Ki/μM (footnote a)): 0.034 µM
CCOC(=N)NCc1cccc(CN)c1 [Example 12, 1-(3-(Aminomethyl)benzyl)-O-ethylisourea] | 0.09 | 4.1 | 1.7 | –
CSC(=N)NCc1cccc(CN)c1 [Example 13, 1-(3-(Aminomethyl)benzyl)-S-methylisothiourea] | 3 | 3.3 | 0.69 | –
CSC(=N)NCc1ccc(CN)cc1 [Example 14, 1-(4-(Aminomethyl)benzyl)-S-methylisothiourea] | 28 | 23.2 | 22.6 | –
N^5-(ethoxyiminomethyl)-L-ornithine dihydrochloride [10^c(ii)] | – | – | – | Ki (human placental NOS; from steady state inhibited rate / control rate, assuming competitive inhibition with respect to arginine, read-out: Human Placental Ki/μM (footnote a)): 0.006 µM; Ki (inducible human NOS; [4]): 0.1 µM
N^5-(iminomethoxymethyl)-L-ornithine dihydrochloride [10^c(i)] | – | – | – | Ki (human placental NOS; [3]): 0.12 µM; Ki (inducible human NOS; [4]): 0.22 µM
N^6-((methylpropylthio)iminomethyl-D-lysine [Example 9N] | 61 | 99 | – | –
N^6-((methylthio)iminomethyl)-D-lysine [Example 9H] | 0.4 | 1.2 | 5.3 | –
N^6-(ethylthio)iminomethyl-D-lysine [Example 9J] | 0.56 | 1.3 | 7 | –

Continued, in another order:

Ki (Human brain NOS) [µM] | Ki (human placental NOS; [1]) [µM] | Ki (inducible human NOS; [2]) [µM] | Molecule | further results
– | 21 | 11 | N[C@@H](CCCCNC1=NCCS1)C(=O)O [Example 5A, N^6-(2-thiazolin-2-yl)-L-lysine] | –
0.09 | 4.1 | 1.7 | CSC(=N)NCCCC[C@H](N)C(=O)O [Example 9A, N^6-(imino(methylthio)methyl)L-lysine] | –
0.9 | 2.1 | 0.15 | CC(C)SC(=N)NCCC[C@H](N)C(=O)O [Example 9C, N^5-(imino(1-methylethylthio)methyl)-L-ornithine] | –
28 | 23.2 | 22.6 | CC(C)SC(=N)NCCCC[C@H](N)C(=O)O [Example 9D, N^6-(imino(1-methylethylthio)methyl)L-lysine] | –
5.5 | 14 | 5.3 | CC(C)CSC(=N)NCCC[C@H](N)C(=O)O [Example 9E, N^5-(imino(2-methylpropylthio)methyl)-L-ornithine] | –
61 | 79 | – | CC(C)CSC(=N)NCCCC[C@H](N)C(=O)O [Example 9F, N^6-(imino(2-methylpropylthio)methyl)-L-lysine] | –
61 | 30 | 40 | CC(C)SC(=N)NCCC[C@@H](N)C(=O)O [Example 9K] | –
108 | 23 | 19 | CC(C)SC(=N)NCCCC[C@@H](N)C(=O)O [Example 9L] | –
19.5 | – | 13 | CC(C)CSC(=N)NCCC[C@@H](N)C(=O)O [Example 9M, N^5-((2-methylpropylthio)iminethyl)-D-ornithine] | –
0.9 | 2.1 | 0.15 | CCSC(=N)NCc1cccc(CN)c1 [Example 13A, 1-(3-(Aminomethyl)benzyl)S-ethylisothiourea] | –
5.5 | 14 | 5.3 | CCSC(=N)NCc1ccc(CN)cc1 [Example 14A, 1-(4-(Aminomethyl)benzyl)-S-ethylisoiourea] | –
